Test results reported in patent US20220106289A1, “NLRP3 INHIBITORS” (INFLAZOME LIMITED, priority 2018, published 2022).
Structures can show the parent of a compound that is named as a salt.

Biological target: NLRP3 (Homo sapiens, UniProt Q96P20)
Assay: THP-1 cells pyroptosis assay (LPS + nigericin, resazurin read-out)
Assay type: cell-based
Design: Seed THP-1 cells (25,000 cells/well) containing 1.0 μg/ml LPS; host or cells: THP-1 cells
Details: NLRP3 inhibitory activity, 1 μg/ml LPS, 5 μM nigericin
Experimental: The cells were routinely passaged and grown to confluency (˜10^6 cells/ml). On the day of the experiment, THP-1 cells were harvested and resuspended into RPMI medium (without FBS). The cells were then counted and viability (>90%) checked by Trypan blue (Sigma #T8154). […] To this diluted cell solution was added LPS (Sigma #L4524) to give a 1 μg/ml Final Assay Concentration (FAC). 40 μl of the final preparation was aliquoted into each well of a 96-well plate. The plate thus prepared was used for compound screening. The following method step-by-step assay was followed for compound screening. • 1. […] Incubate for 3 hrs at 37° C., 5% CO2 • 4. Add 5 μl nigericin (Sigma #N7143) (FAC 5 μM) to all wells • 5. Incubate for 1 hr at 37° C., 5% CO2 • 6. At the end of the incubation period, spin plates at 300×g for 3 mins and remove supernatant • 7. Then add 50 μl of resazurin (Sigma #R7017) (FAC 100 μM resazurin in RPMI medium without FBS) and incubate plates for a further 1-2 hrs at 37° C. and 5% CO2 • 8.

Sequence of NLRP3 (Q96P20 whole entry): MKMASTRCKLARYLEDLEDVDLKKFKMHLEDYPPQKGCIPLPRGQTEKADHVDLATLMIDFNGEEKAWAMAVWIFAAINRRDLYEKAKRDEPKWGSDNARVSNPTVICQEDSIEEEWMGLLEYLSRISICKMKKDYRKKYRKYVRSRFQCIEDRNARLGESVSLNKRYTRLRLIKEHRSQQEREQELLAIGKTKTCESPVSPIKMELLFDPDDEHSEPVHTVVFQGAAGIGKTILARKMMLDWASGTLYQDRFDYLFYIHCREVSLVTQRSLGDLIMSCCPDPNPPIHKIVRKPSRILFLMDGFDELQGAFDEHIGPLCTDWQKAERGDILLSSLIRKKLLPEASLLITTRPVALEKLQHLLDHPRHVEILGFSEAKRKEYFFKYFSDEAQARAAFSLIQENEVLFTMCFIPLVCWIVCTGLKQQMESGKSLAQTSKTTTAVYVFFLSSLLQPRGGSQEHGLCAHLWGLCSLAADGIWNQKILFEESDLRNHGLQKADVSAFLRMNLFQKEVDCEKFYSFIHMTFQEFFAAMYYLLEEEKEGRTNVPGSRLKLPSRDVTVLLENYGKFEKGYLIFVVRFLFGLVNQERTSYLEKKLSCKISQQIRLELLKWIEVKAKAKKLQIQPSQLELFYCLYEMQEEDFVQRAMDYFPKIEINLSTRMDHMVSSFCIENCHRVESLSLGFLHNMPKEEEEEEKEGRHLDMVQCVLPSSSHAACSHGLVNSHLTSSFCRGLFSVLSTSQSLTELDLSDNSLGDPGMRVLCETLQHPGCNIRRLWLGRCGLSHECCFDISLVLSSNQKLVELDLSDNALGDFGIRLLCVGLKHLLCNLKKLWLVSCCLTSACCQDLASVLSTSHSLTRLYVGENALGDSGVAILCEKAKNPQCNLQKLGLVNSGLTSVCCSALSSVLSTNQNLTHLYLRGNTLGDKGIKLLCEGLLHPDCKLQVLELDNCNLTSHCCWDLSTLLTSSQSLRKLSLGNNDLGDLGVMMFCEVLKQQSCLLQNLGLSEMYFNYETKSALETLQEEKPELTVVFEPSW

SMILES	IC50
CC(C)c1cc(F)cc(C(F)(F)F)c1NC(=O)NS(=O)(=O)c1ccn(C(C)C)n1 [Example 70, N-((4-Fluoro-2-isopropyl-6-(trifluoromethyl)phenyl)carbamoyl)-1-isopropyl-1H-pyrazole-3-sulfonamide]	5 to 10 µM
CCOC(=O)c1cc(S(=O)(=O)NC(=O)Nc2c3c(cc4c2CCC4)CCC3)nn1C [Example 79, Ethyl 3-(N-((1,2,3,5,6,7-hexahydro-s-indacen-4-yl)carbamoyl)sulfamoyl)-1-methyl-1H-pyrazole-5-carboxylate]	0.5 to 1 µM
CC(C)(O)c1coc(S(=O)(=O)NC(=O)Cc2cc(Cl)cc(OC(F)(F)F)c2)c1 [Example 91, 2-(3-Chloro-5-(trifluoromethoxy)phenyl)-N-((4-(2-hydroxypropan-2-yl)furan-2-yl)sulfonyl)acetamide]	1 to 5 µM
Cc1cc(C(C)(C)O)ccc1S(=O)(=O)NC(=O)C1CC(C)(C)c2cc(F)cc(C(C)C)c21 (centres unmarked) [Example 1, 5-Fluoro-N-((4-(2-hydroxypropan-2-yl)-2-methylphenyl)sulfonyl)-7-isopropyl-3,3-dimethyl-2,3-dihydro-1H-indene-1-carboxamide]	5 to 10 µM
CC(C)(O)c1coc(S(=O)(=O)NC(=O)Cc2noc3ccccc23)c1 [Example 90, 2-(Benzo[d]isoxazol-3-yl)-N-((4-(2-hydroxypropan-2-yl)furan-2-yl)sulfonyl)acetamide]	1 to 5 µM
COc1cc(-c2ccc3c(c2CC(=O)NS(=N)(=O)C2CN(C(C)C)C2)CCC3)ccn1 (centres unmarked) [Example 25, N-(1-Isopropylazetidine-3-sulfonimidoyl)-2-(5-(2-methoxypyridin-4-yl)-2,3-dihydro-1H-inden-4-yl)acetamide]	5 to 10 µM
CC(C)c1cccc(C(C)C)c1NC(=O)NS(=O)(=O)c1cnn(CC(F)(F)F)c1 [Example 76, N-((2,6-Diisopropylphenyl)carbamoyl)-1-(2,2,2-trifluoroethyl)-1H-pyrazole-4-sulfonamide]	5 to 10 µM
CC(C)c1cc(F)cc(C(C)C)c1CC(=O)NS(=O)(=O)c1cc(C(C)(C)O)n(C(C)C)n1 [Example 29, 2-(4-Fluoro-2,6-diisopropylphenyl)-N-((5-(2-hydroxypropan-2-yl)-1-isopropyl-1H-pyrazol-3-yl)sulfonyl)acetamide]	5 to 10 µM
COc1cc(-c2ccc3c(c2NC(=O)N[S+]([O-])c2ccn(C(C)C)n2)CCC3)ccn1 (centres unmarked) [Example 23, 1-Isopropyl-N-((5-(2-methoxypyridin-4-yl)-2,3-dihydro-1H-inden-4-yl)carbamoyl)-1H-pyrazole-3-sulfinamide]	1 to 5 µM
CC(C)OS(=O)(=O)NC(=O)Nc1c2c(cc3c1CCC3)CCC2 [Example 87, Isopropyl (1,2,3,5,6,7-hexahydro-s-indacen-4-yl)carbamoylsulfamate, sodium salt]	1 to 5 µM
Cc1cc(Br)cc(CC(=O)NS(=O)(=O)c2cc(C(C)(C)O)co2)c1 [Example 94, 2-(3-Bromo-5-methylphenyl)-N-((4-(2-hydroxypropan-2-yl)furan-2-yl)sulfonyl)acetamide]	1 to 5 µM
CC(C)(O)c1coc(S(=O)(=O)NC(=O)Cc2cccc(I)c2)c1 [Example 93, N-((4-(2-Hydroxypropan-2-yl)furan-2-yl)sulfonyl)-2-(3-iodophenyl)acetamide]	5 to 10 µM
CC(C)(O)c1coc(S(=O)(=O)NC(=O)Cn2ncc3ccccc32)c1 [Example 89, N-((4-(2-Hydroxypropan-2-yl)furan-2-yl)sulfonyl)-2-(1H-indazol-1-yl)acetamide]	1 to 5 µM
CC(C)c1cc(F)cc(C(C)C)c1CC(=O)NS(=O)(=O)c1cnc(C(C)(C)O)s1 [Example 27, 2-(4-Fluoro-2,6-diisopropylphenyl)-N-((2-(2-hydroxypropan-2-yl)thiazol-5-yl)sulfonyl)acetamide]	1 to 5 µM
CC(C)c1cc(C#N)cc(C(C)C)c1NC(=O)NS(=O)(=O)c1cnn(C(C)C)c1 [Example 75, N-((4-Cyano-2,6-diisopropylphenyl)carbamoyl)-1-isopropyl-1H-pyrazole-4-sulfonamide]	1 to 5 µM
CC(C)(O)c1coc(S(=O)(=O)NC(=O)Cc2cc(C(F)(F)F)cc(C(F)(F)F)c2)c1 [Example 98, 2-(3,5-bis(Trifluoromethyl)phenyl)-N-((4-(2-hydroxy-propan-2-yl)furan-2-yl)sulfonyl)acetamide]	1 to 5 µM
CC(C)c1cc(F)cc(C(C)C)c1CC(=O)NS(=O)(=O)c1ccc2ccccc2c1 [Example 96, 2-(4-Fluoro-2,6-diisopropylphenyl)-1-(2-naphthylsulfonylamino)-1-ethanone]	1 to 5 µM
CCOC(=O)CNC(=O)Nc1c2c(cc(C)c1-c1ccnc(OC3CCN(C)CC3)c1)CCC2 [Example 97, Ethyl 2-(3-(6-methyl-5-(2-((1-methylpiperidin-4-yl)oxy)pyridin-4-yl)-2,3-dihydro-1H-inden-4-yl)ureido)acetate]	1 to 5 µM
CC(C)c1cc(F)cc(C(C)C)c1CC(=O)NS(=O)(=O)c1ncc(C(C)(C)O)s1 [Example 30, 2-(4-Fluoro-2,6-diisopropylphenyl)-N-((5-(2-hydroxypropan-2-yl)thiazol-2-yl)sulfonyl)acetamide]	1 to 5 µM
COc1cc(-c2cc(F)cc(C(C)C)c2CCC(=O)NS(=O)(=O)c2cc(C(C)(C)O)cs2)ccn1 [Example 5, 3-(4-Fluoro-2-isopropyl-6-(2-methoxypyridin-4-yl)phenyl)-N-((4-(2-hydroxypropan-2-yl)thiophen-2-yl)sulfonyl)propanamide]	5 to 10 µM
COc1cc(-c2cc(F)cc(C(C)C)c2CCC(=O)NS(=O)(=O)c2ccc(CN(C)C)cc2)ccn1 [Example 4, N-((4-((Dimethylamino)methyl)phenyl)sulfonyl)-3-(4-fluoro-2-isopropyl-6-(2-methoxypyridin-4-yl)phenyl)propanamide, potassium salt]	5 to 10 µM
CC(C)c1cccc(O[C@@H]2CCOC2)c1NC(=O)NS(=O)(=O)c1ccn(C(C)C)n1 [Example 85, (R)-1-Isopropyl-N-((2-isopropyl-6-((tetrahydrofuran-3-yl)oxy)phenyl)carbamoyl)-1H-pyrazole-3-sulfonamide]	5 to 10 µM
CC(C)(O)c1coc(S(=O)(=O)NC(=O)Cc2cc(Cl)cc(C(F)(F)F)c2)c1 [Example 92, 2-(3-Chloro-5-(trifluoromethyl)phenyl)-N-((4-(2-hydroxypropan-2-yl)furan-2-yl)sulfonyl)acetamide]	5 to 10 µM
O=C(Nc1c2c(cc3c1CCC3)CCC2)NS(=O)(=O)c1cnn(CC2CC2)c1 [Example 44, 1-(Cyclopropylmethyl)-N-((1,2,3,5,6,7-hexahydro-s-indacen-4-yl)carbamoyl)-1H-pyrazole-4-sulfonamide, sodium salt]	< 0.25 µM
CC(C)c1cccc(C(C)C)c1NC(=O)NS(=O)(=O)c1ccn(C(C)C)n1 [Example 68, N-((2,6-Diisopropylphenyl)carbamoyl)-1-isopropyl-1H-pyrazole-3-sulfonamide, sodium salt]	1 to 5 µM
Cc1nn(C(C)C)cc1S(=O)(=O)NC(=O)Nc1c2c(cc3c1CCC3)CCC2 [Example 43, N-((1,2,3,5,6,7-Hexahydro-s-indacen-4-yl)carbamoyl)-1-isopropyl-3-methyl-1H-pyrazole-4-sulfonamide, sodium salt]	0.25 to 0.5 µM
Cc1nn(C)cc1S(=O)(=O)NC(=O)Nc1c2c(cc3c1CCC3)CCC2 [Example 80, N-((1,2,3,5,6,7-Hexahydro-s-indacen-4-yl)carbamoyl)-1,3-dimethyl-1H-pyrazole-4-sulfonamide, sodium salt]	0.5 to 1 µM
CC(O)c1cc(S(=O)(=O)NC(=O)Nc2c3c(cc4c2CCC4)CCC3)nn1C (centres unmarked) [Example 74, N-((1,2,3,5,6,7-Hexahydro-s-indacen-4-yl)carbamoyl)-5-(1-hydroxyethyl)-1-methyl-1H-pyrazole-3-sulfonamide]	0.5 to 1 µM
CC(C)c1cc(F)cc2c1C(C(=O)NS(=O)(=O)c1cc(C(C)(C)O)cs1)CC2(C)C (single isomer, unassigned) [Example 9, 5-Fluoro-N-((4-(2-hydroxypropan-2-yl)thiophen-2-yl)sulfonyl)-7-isopropyl-3,3-dimethyl-2,3-dihydro-1H-indene-1-carboxamide, potassium salt (rotamer P2)]	5 to 10 µM
